Test results published in patent US8415469B2, “Compounds and methods for kinase modulation, and indications therefor” (Plexxikon Inc., priority 2005, dated 2013).

How the values were obtained:
Format in all cases: biochemical
[1] = molecular target: T1, Abl (Homo sapiens, UniProt P00519); test: AlphaScreen kinase assay, Abl; details: read-out: activity toward kinase Abl, IC50
T1 construct: P1121. pET-SPEC BI-PTP Abl G227-V515-X; His6 (N); made in house; host or cells: E. coli (PTP1B co-expressed)
T1 sequence (P00519 with tags, fused parts or gaps): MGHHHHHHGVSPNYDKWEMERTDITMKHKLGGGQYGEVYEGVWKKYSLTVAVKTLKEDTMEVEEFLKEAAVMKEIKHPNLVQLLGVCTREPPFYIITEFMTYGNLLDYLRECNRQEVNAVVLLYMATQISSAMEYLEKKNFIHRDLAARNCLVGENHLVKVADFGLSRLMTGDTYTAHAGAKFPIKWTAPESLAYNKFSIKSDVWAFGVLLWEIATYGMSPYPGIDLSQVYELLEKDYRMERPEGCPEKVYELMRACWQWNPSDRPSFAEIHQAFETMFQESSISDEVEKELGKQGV
Method in brief: (§1)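 Compounds in DMSO (20 mM stock) were diluted 1:3 across 8 points. Each kinase phosphorylated a biotin-labelled peptide. Signal generated when donor and acceptor beads came close via antibody binding of phosphorylated substrate.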

[2] = molecular target: T2, FGFR1 (Homo sapiens, UniProt P11362, C488A/C584S); test: AlphaScreen kinase assay, FGFR1; details: read-out: IC50, activity toward kinase FGFR
T2 construct: P1351.pET N6 BI-PTP FGFR A458-E765-X C488A, C584S; made in house; host or cells: E. coli (PTP1B co-expressed)

[3] = molecular target: T3, Flt4 (Homo sapiens, UniProt P35916); test: AlphaScreen kinase assay, Flt4; details: read-out: IC50, activity toward kinase Flt4
T3 construct: purchased ProQinase GmbH (Freiburg, Germany)
Method in brief: as §1

[4] = molecular target: T4, Kdr (Homo sapiens, UniProt P35968); test: Z'-Lyte FRET kinase assay (Invitrogen), Kdr; details: read-out: IC50, activity toward kinase Kdr
T4 construct: purchased Invitrogen (assay run by Invitrogen)

[5] = molecular target: T5, Kit (Homo sapiens, UniProt P10721); test: AlphaScreen kinase assay, Kit; details: read-out: IC50, activity toward kinase Kit
T5 construct: P1332.N6 BI PTP KIT M552-K948-X COD; His6 (N); made in house; host or cells: E. coli (PTP1B co-expressed)

[6] = molecular target: T6, MAP2K1 (Homo sapiens, UniProt Q02750); test: Z'-Lyte FRET kinase assay (Invitrogen), MAP2K1; details: read-out: IC50, activity toward kinase MAP2K1
T6 construct: purchased Invitrogen (assay run by Invitrogen)

[7] = molecular target: T7, Ret (Homo sapiens, UniProt P07949); test: AlphaScreen kinase assay, Ret; details: read-out: IC50, activity toward kinase Ret
T7 construct: P1378.pET-SF BI-PTP RET H661-R1012 HIS; made in house
T7 sequence (P07949 with tags, fused parts or gaps): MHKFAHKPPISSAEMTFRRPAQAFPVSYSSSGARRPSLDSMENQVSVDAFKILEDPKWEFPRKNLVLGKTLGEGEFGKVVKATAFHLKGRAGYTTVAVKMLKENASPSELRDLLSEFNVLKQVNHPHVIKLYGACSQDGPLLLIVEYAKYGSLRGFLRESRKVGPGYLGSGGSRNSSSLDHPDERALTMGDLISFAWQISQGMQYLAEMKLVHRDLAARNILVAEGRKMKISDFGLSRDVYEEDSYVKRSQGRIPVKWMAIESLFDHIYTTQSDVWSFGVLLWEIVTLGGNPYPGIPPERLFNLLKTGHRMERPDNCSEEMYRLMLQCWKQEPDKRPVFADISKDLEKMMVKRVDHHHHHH

[8] = molecular target: T8, Stk6 (Homo sapiens, UniProt O14965); test: Z'-Lyte FRET kinase assay (Invitrogen), Stk6; details: read-out: IC50, activity toward kinase Stk6
T8 construct: purchased Invitrogen (Carlsbad, Calif.), screening service
T8 sequence (O14965 1-403): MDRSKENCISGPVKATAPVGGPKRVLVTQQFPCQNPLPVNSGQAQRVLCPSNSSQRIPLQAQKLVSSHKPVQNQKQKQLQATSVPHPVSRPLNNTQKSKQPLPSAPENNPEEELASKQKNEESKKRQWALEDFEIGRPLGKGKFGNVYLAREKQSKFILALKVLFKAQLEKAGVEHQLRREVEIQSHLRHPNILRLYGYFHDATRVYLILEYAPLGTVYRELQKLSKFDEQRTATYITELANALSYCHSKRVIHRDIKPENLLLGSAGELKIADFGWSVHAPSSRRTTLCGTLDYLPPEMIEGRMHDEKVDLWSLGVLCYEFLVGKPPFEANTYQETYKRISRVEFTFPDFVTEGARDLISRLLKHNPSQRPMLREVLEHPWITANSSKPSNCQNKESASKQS

[9] = molecular target: T9, B-Raf V600E (Homo sapiens, UniProt P15056, V600E); test: AlphaScreen kinase assay, B-Raf V600E; details: read-out: IC50, activity toward kinase B-Raf V600E
T9 construct: P4254. pFastBacBD-CDC37 BRAF D437-K722-X, V600E; His6 with pFastBac HT leader (TEV site) (N); made in house; host or cells: Sf9 (baculovirus; chaperone CDC37 co-expressed)

[10] = molecular target: T10, c-Raf-1 (Homo sapiens, UniProt P04049); test: AlphaScreen kinase assay, c-Raf-1; details: read-out: IC50, activity toward kinase c-Raf-1
T10 construct: purchased Upstate Biotechnology

[11] = molecular target: T11, Fms (Homo sapiens, UniProt P07333); test: AlphaScreen kinase assay, Fms; details: read-out: IC50, activity toward kinase Fms
T11 construct: purchased Upstate Biotechnology

[12] = molecular target: T12, Met (Homo sapiens, UniProt P08581); test: AlphaScreen kinase assay, Met; details: read-out: IC50, activity toward kinase Met
T12 construct: P1818.pETN6 BI-PTP MET G1056-G1364-X WT; His6 (N); made in house; host or cells: E. coli (PTP1B co-expressed)
Method in brief: as §1

[13] = molecular target: Gsk3β (Homo sapiens, UniProt P49841); test: AlphaScreen kinase assay, Gsk3β; details: read-out: IC50, activity toward kinase Gsk3β
Text: AlphaScreen assay was used to screen additional kinases. The assay is similarly dependent on the phosphorylation of a peptide substrate. In this assay, an antibody that recognizes phosphorylated substrate is bound to an acceptor bead. The peptide substrate is attached to biotin, which binds to a donor head that contains streptavidin. Thus phosphorylated substrate is bound by antibody and streptavidin, bringing the donor and acceptor heads into close proximity when kinase is not inhibited. The donor produces singlet oxygen which results in emission from the acceptor when they are in close proximity. Conversely, when kinase is inhibited, the donor and acceptor beads are not associated and the emission from the acceptor is reduced.
AlphaScreen assays were done using compounds dissolved in DMSO to a concentration of 20 mM. The compounds were diluted accordingly to the desired final concentrations in each sample well, using 1:3 serial dilution for a total of 8 concentration points.

[14] = molecular target: T13, Btk (Homo sapiens, UniProt Q06187); test: Z'-Lyte FRET kinase assay (Invitrogen), Btk; details: read-out: IC50, activity toward kinase Btk
T13 construct: purchased Invitrogen (assay run by Invitrogen)

[15] = molecular target: T14, Src (Homo sapiens, UniProt P12931); test: AlphaScreen kinase assay, Src; details: read-out: IC50, activity toward kinase Src
T14 construct: P1144. pET-N6 BI-PTP SRC V86-L536-X; made in house

[16] = molecular target: T15, Yes (Homo sapiens, UniProt P07947); test: Z'-Lyte FRET kinase assay (Invitrogen), Yes; details: read-out: IC50, activity toward kinase Yes
T15 construct: purchased Invitrogen (Carlsbad, Calif.), screening service
Method in brief: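 Under a compound concentration curve, the kinase acted on a dual-labelled peptide at 2 μM with ATP at 10 μM for one hour at ambient temperature (buffer pH 7.5, 1% DMSO). Phosphorylation extent came from the emission ratio after protease development.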

[17] = molecular target: MAP4K4 (Homo sapiens, UniProt O95819); test: AlphaScreen kinase assay, MAP4K4; details: read-out: IC50, activity toward kinase MAP4K4
[18] = molecular target: T16, Flt1 (Homo sapiens, UniProt P17948); test: AlphaScreen kinase assay, Flt1; details: read-out: IC50, activity toward kinase Flt1
T16 construct: P1826.pETN6 BI-PTP FLT1 M799-D1165-X WT; His6 (N); made in house; host or cells: E. coli (PTP1B co-expressed)
T16 sequence (P17948 with tags, fused parts or gaps): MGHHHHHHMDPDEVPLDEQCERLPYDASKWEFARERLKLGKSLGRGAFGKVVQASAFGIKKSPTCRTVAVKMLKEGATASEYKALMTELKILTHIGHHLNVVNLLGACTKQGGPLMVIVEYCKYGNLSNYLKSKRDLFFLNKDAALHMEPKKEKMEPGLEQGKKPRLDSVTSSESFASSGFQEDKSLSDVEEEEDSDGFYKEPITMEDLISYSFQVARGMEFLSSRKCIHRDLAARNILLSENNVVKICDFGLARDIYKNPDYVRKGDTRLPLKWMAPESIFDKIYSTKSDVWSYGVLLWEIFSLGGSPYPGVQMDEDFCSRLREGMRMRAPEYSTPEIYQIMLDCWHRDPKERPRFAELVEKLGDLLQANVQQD

[19] = molecular target: T17, B-Raf (Homo sapiens, UniProt P15056); test: AlphaScreen kinase assay, B-Raf; details: read-out: IC50, activity toward kinase B-Raf
T17 construct: purchased Upstate Biotechnology

Measured: IC50

T5 sequence (P10721 with tags, fused parts or gaps): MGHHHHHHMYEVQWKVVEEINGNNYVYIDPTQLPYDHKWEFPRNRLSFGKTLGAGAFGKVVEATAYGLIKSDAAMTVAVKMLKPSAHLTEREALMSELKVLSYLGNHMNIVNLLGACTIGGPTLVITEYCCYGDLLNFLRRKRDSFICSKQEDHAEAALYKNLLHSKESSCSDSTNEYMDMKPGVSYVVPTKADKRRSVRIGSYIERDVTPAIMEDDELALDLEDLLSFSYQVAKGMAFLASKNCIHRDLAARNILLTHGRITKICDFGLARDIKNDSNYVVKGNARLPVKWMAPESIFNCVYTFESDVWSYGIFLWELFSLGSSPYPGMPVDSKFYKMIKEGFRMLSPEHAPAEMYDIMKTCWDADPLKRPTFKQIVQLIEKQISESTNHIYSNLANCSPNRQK
T4 sequence (P35968 20-1356): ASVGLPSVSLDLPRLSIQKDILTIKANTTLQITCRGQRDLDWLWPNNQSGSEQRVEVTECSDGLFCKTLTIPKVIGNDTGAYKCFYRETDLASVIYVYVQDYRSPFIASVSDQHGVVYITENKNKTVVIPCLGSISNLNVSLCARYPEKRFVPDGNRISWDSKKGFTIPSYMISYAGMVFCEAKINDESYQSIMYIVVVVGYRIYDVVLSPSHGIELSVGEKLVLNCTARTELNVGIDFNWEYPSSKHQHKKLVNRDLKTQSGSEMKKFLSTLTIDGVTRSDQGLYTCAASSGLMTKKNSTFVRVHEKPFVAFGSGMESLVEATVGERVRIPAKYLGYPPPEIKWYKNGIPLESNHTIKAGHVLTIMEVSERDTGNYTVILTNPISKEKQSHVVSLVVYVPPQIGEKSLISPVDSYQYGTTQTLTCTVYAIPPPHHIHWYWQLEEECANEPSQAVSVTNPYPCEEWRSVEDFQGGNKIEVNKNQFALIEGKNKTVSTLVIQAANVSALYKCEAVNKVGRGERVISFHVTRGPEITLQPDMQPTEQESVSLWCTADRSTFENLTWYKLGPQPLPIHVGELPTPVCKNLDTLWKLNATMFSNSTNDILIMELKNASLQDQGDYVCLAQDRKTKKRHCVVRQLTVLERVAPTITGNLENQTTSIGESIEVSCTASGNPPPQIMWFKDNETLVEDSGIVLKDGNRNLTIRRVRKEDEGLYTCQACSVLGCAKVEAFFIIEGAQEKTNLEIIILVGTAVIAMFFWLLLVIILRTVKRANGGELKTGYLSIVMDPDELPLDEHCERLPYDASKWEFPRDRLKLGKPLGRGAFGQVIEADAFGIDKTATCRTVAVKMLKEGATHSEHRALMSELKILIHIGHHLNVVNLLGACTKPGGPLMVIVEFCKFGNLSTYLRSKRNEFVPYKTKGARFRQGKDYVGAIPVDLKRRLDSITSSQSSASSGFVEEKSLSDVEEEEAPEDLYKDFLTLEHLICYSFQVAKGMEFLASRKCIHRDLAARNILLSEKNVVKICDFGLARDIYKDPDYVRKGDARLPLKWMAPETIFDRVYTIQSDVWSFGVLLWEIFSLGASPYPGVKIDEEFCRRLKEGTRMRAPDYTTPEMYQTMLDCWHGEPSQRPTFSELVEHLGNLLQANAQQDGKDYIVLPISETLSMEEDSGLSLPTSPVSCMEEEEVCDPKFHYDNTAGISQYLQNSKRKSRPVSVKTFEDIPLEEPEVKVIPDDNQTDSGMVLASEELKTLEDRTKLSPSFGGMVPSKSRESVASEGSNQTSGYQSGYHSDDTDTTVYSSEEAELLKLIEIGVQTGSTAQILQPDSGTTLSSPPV
T11 sequence (P07333 20-972): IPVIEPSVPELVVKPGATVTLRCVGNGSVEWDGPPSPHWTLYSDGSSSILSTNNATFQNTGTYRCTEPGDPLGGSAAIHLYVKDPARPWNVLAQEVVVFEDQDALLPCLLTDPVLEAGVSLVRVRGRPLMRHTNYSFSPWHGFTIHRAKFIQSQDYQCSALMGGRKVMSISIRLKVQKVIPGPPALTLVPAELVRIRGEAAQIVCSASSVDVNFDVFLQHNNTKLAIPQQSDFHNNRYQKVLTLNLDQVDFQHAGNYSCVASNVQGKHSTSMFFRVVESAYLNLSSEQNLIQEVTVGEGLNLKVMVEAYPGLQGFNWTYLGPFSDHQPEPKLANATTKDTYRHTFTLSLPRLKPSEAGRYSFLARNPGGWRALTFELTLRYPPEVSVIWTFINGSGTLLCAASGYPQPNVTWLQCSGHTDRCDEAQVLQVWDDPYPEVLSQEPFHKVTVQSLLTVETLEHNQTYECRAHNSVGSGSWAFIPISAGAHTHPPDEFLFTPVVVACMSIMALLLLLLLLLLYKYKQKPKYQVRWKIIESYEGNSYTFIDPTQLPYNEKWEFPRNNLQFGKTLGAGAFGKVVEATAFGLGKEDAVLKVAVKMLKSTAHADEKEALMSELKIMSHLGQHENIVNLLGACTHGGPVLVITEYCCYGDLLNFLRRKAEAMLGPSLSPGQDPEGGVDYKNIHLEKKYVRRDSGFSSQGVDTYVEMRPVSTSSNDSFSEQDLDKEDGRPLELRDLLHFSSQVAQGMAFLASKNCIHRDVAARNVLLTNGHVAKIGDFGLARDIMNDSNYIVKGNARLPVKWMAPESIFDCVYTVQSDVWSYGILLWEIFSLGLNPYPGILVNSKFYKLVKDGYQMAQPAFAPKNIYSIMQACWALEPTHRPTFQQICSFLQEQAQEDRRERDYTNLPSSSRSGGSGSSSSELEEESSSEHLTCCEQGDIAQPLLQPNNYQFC
T9 sequence (P15056 with tags, fused parts or gaps V600E): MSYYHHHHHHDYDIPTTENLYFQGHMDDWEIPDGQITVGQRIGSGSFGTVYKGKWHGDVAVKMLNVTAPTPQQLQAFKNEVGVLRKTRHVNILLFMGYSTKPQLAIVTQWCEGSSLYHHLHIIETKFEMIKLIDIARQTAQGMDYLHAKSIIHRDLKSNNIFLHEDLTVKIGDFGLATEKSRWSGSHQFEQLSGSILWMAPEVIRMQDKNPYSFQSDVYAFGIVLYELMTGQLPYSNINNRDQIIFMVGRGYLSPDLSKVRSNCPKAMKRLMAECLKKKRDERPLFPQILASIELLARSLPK
Sequence of Gsk3β (P49841 whole entry): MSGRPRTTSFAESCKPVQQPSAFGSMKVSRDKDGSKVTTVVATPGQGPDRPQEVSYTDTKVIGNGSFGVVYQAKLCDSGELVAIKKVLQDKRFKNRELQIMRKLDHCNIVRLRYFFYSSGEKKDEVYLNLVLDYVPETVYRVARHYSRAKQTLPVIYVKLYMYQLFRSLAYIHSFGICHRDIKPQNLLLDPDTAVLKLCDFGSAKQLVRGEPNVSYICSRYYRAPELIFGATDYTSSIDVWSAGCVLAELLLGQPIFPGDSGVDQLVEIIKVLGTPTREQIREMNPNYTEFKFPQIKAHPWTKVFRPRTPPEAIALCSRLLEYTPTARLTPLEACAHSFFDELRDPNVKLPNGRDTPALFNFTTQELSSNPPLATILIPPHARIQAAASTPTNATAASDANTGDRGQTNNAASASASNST
T6 sequence (Q02750 whole entry): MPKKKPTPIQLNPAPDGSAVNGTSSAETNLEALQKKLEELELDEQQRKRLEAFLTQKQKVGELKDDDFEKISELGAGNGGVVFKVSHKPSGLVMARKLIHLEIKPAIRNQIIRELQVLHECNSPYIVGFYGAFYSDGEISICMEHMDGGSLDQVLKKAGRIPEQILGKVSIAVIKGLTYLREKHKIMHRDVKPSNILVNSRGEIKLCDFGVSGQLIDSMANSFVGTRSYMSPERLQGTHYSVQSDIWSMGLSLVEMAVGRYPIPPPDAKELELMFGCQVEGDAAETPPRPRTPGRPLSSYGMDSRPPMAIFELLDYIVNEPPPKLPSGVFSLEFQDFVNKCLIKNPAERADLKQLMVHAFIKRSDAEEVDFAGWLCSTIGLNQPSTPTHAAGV
T2 sequence (P11362 458-765 C488A/C584S): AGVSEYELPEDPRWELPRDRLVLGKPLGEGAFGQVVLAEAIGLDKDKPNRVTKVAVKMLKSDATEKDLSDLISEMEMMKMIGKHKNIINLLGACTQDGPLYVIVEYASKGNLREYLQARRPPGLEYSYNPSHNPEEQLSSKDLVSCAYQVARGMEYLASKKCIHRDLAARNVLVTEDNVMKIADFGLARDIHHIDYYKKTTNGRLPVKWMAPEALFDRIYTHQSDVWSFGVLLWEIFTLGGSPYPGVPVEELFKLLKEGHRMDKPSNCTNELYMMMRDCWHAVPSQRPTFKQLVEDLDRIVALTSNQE
T14 sequence (P12931 with tags, fused parts or gaps): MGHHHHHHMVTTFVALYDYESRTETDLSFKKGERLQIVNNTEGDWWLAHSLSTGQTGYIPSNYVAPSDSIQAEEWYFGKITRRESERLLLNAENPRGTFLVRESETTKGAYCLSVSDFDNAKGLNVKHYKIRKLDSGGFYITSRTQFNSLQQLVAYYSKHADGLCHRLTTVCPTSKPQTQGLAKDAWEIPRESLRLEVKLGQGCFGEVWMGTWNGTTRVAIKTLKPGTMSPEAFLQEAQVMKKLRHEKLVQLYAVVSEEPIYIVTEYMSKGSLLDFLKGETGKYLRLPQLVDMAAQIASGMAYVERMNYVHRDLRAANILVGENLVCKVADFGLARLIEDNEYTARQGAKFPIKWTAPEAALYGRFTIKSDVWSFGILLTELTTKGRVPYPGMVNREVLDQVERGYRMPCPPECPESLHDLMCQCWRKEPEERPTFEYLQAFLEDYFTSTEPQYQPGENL
T12 sequence (P08581 with tags, fused parts or gaps): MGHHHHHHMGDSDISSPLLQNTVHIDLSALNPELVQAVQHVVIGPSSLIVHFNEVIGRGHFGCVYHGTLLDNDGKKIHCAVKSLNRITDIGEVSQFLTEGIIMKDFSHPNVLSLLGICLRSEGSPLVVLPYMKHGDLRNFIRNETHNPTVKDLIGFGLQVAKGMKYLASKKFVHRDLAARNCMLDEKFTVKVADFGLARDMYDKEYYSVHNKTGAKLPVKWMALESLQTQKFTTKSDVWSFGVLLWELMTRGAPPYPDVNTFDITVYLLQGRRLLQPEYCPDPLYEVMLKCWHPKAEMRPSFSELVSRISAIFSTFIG

COc1cccc(C(=O)c2c[nH]c3ncc(-c4cccnc4)cc23)c1 [Compound P-0167]
≤ 10 µM: [1] | [2] | [3] | [4] | [5] | [6] | [7]

c1cncc(-c2c[nH]c3ncccc23)c1 [Compound P-0023]
≤ 10 µM: [4] | [6] | [8]

CS(=O)(=O)Nc1ccc(F)c(C(=O)c2c[nH]c3ncc(Br)cc23)c1 [Compound P-0170, N-[3-(5-Bromo-1H-pyrrolo[2,3-b]pyridine-3-carbonyl)-4-fluoro-phenyl]-methanesulfonamide]
≤ 10 µM: [9] | [10] | [2] | [11] | [4] | [6]

COc1cccc(C(=O)c2c[nH]c3nccc(Cl)c23)c1 [Compound P-0149]
≤ 10 µM: [2] | [4] | [6] | [12]

O=[N+]([O-])c1cccc(Sc2c[nH]c3nccc(-c4cccc(C(F)(F)F)c4)c23)c1 [Compound P-0969]
≤ 10 µM: [13]

Cc1cc(C)cc(-c2ccnc3[nH]cc(Sc4ccccn4)c23)c1 [Compound P-0273]
≤ 10 µM: [13]

COc1ccc(C(=O)c2c[nH]c3ncccc23)c(Cl)c1 [Compound P-0152]
not listed: [1] | [3] | [8] | [10] | [12] | [13] | [18] | [19]
≤ 10 µM: all other assays above

Cc1cc(C)cc(-c2ccnc3[nH]ccc23)c1 [Compound P-0159]
≤ 10 µM: [7] | [13]

NC(=O)c1cccc(-c2ccnc3[nH]cc(C(=O)c4ccccc4F)c23)c1 [Compound P-1181]
≤ 10 µM: [9] | [2] | [18] | [5] | [7] | [15] | [13]

Cc1c(NS(C)(=O)=O)cccc1C(=O)c1c[nH]c2ncc(Br)cc12 [Compound P-0180, N-[3-(5-Bromo-1H-pyrrolo[2,3-b]pyridine-3-carbonyl)-2-methyl-phenyl]-methanesulfonamide]
≤ 10 µM: [19] | [9] | [10] | [2] | [18] | [11] | [4] | [5] | [13]

CC(C)(C)OC(=O)Nc1ccc(F)c(C(=O)c2c[nH]c3ncc(Br)cc23)c1F [Compound P-1142]
≤ 10 µM: [2] | [13]

Cc1cc(C)cc(-c2ccnc3[nH]cc(Sc4ccccc4)c23)c1 [Compound P-0252]
≤ 10 µM: [9] | [13]

CS(=O)(=O)Nc1cccc(-c2ccnc3[nH]cc(C(=O)c4ccccc4F)c23)c1 [Compound P-0236]
≤ 10 µM: [7] | [13]

Nc1cccc(-c2c(CN3CCC(C(=O)O)CC3)[nH]c3ncccc23)c1 [Compound P-0462]
≤ 10 µM: [13]

CS(=O)(=O)Nc1cccc(C(=O)c2c[nH]c3ncccc23)c1 [Compound P-0198]
≤ 10 µM: [2] | [4] | [6] | [17]
